Entries after “also recorded” stand apart in the source; their conditions may differ. Read-outs that look alike come from different tables or passages of the source.
Assays:
splenocytes = assay: Ex vivo interferon gamma ELISA on splenocytes; type: in vivo, BALB/c mice; conditions: CT26-bearing mice, IC87114 75 mg kg^−1 oral three hours before intravenous VVL15
Protocol: Interferon gamma assay on splenocytes derived from BALB/c mice bearing CT26 tumours. Fifteen mice were subcutaneously injected in their shaved right flank with 1×10^6 CT26 tumour cells. […] An interferon (IFN) gamma ELISA was performed. Anti-tumour immunity: splenocytes were stimulated with mitomycin treated CT26 cells, there was no statistically significant difference between any of the groups.
FIG. 2E illustrates an ex vivo interferon gamma assay performed on splenocytes derived from BALB/c mice bearing CT26 tumours. […] Thus pre-treatment with IC87114 appears to reduce in magnitude the subsequent development of an anti-viral response. This potentially could mean that aside from the effect IC87114 has on macrophages at an early time point it has a separate more lasting effect that leads to reduced anti-viral immunity and to the establishment of an effective infection of the tumours leading to the observed improvement in efficacy compared to virus alone.

p110 delta protein = type: cell-based, BALB/c mice
[1] = type: in vivo; conditions: Rats, oral administration
[2] = test system: bone marrow derived macrophages; type: cell-based, BALB/c mice
orthotopic 4T1 tumours = assay: Efficacy study, oral IC87114 and intravenous VVL15, orthotopic 4T1 tumours; type: in vivo, BALB/c mice; conditions: 4T1 orthotopic; IC87114 75 mg kg^−1 oral gavage three hours before intravenous VVL15 (Group D); vs all other groups
Vaccinia virus = conditions: in vivo
CT26 flank tumours [3] = assay: Efficacy study, oral IC87114 and intravenous VVL15, CT26 flank tumours; type: in vivo, BALB/c mice; conditions: IC87114 50 mg kg^−1 oral gavage three hours before intravenous VVL15 (Group D), vs all other groups
CT26 flank tumours [4] = type: in vivo, BALB/c mice; conditions: 75 mg kg^−1 IC87114 three hours before intravenous 1×10^8 PFU VVL15, days 1, 3, 4 and 5, vs vehicle buffer
[5] = several trials; cited from earlier work

| SMILES | anti-tumour immunity: IFN gamma from splenocytes stimulated with mitomycin treated CT26 cells (splenocytes) | anti-viral immunity: IFN gamma from splenocytes stimulated with B8R protein (splenocytes; vs virus alone) | p110 delta protein expression (p110 delta protein) | time to maximum plasma concentration [1] [h] | viral attachment to wild-type macrophages compared with p110 delta knock in macrophages ([2]; wild-type macrophages pretreated 2 hours with IC87114, vs untreated wild-type (P<0.05 or P<0.01)) | amount of VVL15 attached to macrophages (qPCR) ([2]; wildtype macrophages pretreated 2 hours with IC87114 vs untreated (P<0.001)) | Vaccinia virus detected on macrophages (confocal microscopy) ([2]; wildtype macrophages pretreated 2 hours with IC87114 vs vehicle buffer) | survival (Kaplan-Meier) (orthotopic 4T1 tumours) | localisation of Vaccinia virus to the spleen (Vaccinia virus) | number of cells immunoreactive for Vaccinia coat protein per ×200 field in spleen (Vaccinia virus) | survival (Kaplan-Meier) (CT26 flank tumours [3]) | tumour luminescence signal (CT26 flank tumours [4]) | tumour luminescence signal (CT26 flank tumours [4]; listed as IC87714) | toxicities in trials [5] |
| --- | --- | --- | --- | --- | --- | --- | --- | --- | --- | --- | --- | --- | --- | --- |
| Cc1ccccc1-n1c(Cn2cnc3c(N)ncnc32)nc2cccc(C)c2c1=O [IC87114, 2-[(6-amino-9H-purin-9-yl)methyl]-5-methyl-3-(2-methylphenyl)-4(3H)-quinazolinone] | no effect on anti-tumour immunity | attenuates anti-viral immunity; also recorded: reduced levels of IFN gamma | does not appear to alter the amount of p110 delta protein detected | 4 | statistically significant from untreated wild-type macrophages | statistically significantly different from untreated macrophages; also recorded: significantly reduces VVL15 attachment to macrophages; also recorded: reduction in viral attachment to macrophages | less Vaccinia virus detected | improves survival; also recorded: survived significantly longer than all other groups; also recorded: survival advantage | reduces the localisation of Vaccinia virus to the spleen | statistically significant difference between the groups | improves survival; also recorded: survived significantly longer than all the other groups; also recorded: survival advantage | significantly more signal | consistently higher tumour luminescence compared to control |  |
| CC[C@H](Nc1ncnc2[nH]cnc12)c1nc2cccc(F)c2c(=O)n1-c1ccccc1 [Idelalisib, 5-Fluoro-3-phenyl-2-[(1S)-1-(7H-purin-6-ylamino)propyl]-4(3H)-quinazolinone] |  |  |  |  |  |  |  |  |  |  |  |  |  | minimal toxicities |

From patent publication US11351209B2 (priority 2016, dated 2022)
